Measurements as given in US20250144067A1, “PERSONALIZED STARVATION THERAPY FOR CANCER” (Faeth Therapeutics, Inc., priority 2021, published 2025).
Where a name gives a salt, the structure may show the parent alone. Read-outs that look alike come from different tables or passages of the source.

Experiments:
[1] = test system: NCI-H292 lung cancer cells; experiment: FDA drug screening, complete media vs cholesterol-free media without statin (TABLE 1); assay type: cell-based, human
[2] = test system: NCI-H292 lung cancer cells; experiment: FDA drug screening, complete media vs cholesterol-free media with simvastatin (TABLE 2); assay type: cell-based, human
[3] = Complete minus Cholesterol-free, greater than 0 enhanced anti-cancer activity, about 0 neutral, below 0 antagonists
[4] = NCI-H292 cells in cholesterol-free media without statin
[5] = NCI-H292 cells in complete media
[6] = NCI-H292 cells, FDA library drug in cholesterol-free media with simvastatin 0.04 μM
[7] = NCI-H292 cells, FDA library drug in complete media
[8] = complete media vs cholesterol-free media + simvastatin (0.04 μM), >0 enhanced anti-cancer activity, about 0 neutral, <0 antagonist
[9] = Complete minus Cholesterol-free, […]
[10] = NCI-H292 cells, FDA drug library screen, cholesterol-free media without statin
[11] = NCI-H292 cells, FDA drug library screen, complete media
[12] = NCI-H292 cells, cholesterol-free media with simvastatin 0.04 μM, FDA drug library screen (TABLE 2)
[13] = NCI-H292 cells, complete media, FDA drug library screen (TABLE 2)
[14] = Complete minus Cholesterol-free, greater than 0 enhanced anti-cancer activity, about 0 neutral, below 0 antagonist
[15] = complete media minus cholesterol-free media + simvastatin (0.04 μM), >0 enhanced anti-cancer activity, about 0 neutral, <0 antagonist
[16] = NCI-H292 cells, FDA drug library screen, cholesterol-free media with simvastatin 0.04 μM
[17] = Complete minus Cholesterol-free, >0 enhanced anti-cancer activity, about 0 neutral, <0 antagonist
[18] = NCI-H292 cells, cholesterol-free media without statin
[19] = NCI-H292 cells, cholesterol-free media with simvastatin 0.04 μM, cell growth value in FDA drug screen
[20] = NCI-H292 cells, complete media, cell growth value in FDA drug screen
[21] = complete media minus cholesterol-free media + simvastatin, >0 enhanced anti-cancer activity, about 0 neutral, <0 antagonist
[22] = NCI-H292 cells, cholesterol-free media without statin, FDA drug library screen
[23] = NCI-H292 cells, complete media, FDA drug library screen
[24] = complete media vs cholesterol-free media + simvastatin (0.04 μM), […]

Q: Which results are given for C[C@](N)(Cc1ccc(O)c(O)c1)C(=O)O.O [L-(−)-α-Methyldopa (hydrate)]?
A: Difference [1, 3]: −0.69; Cholesterol-free [1, 4]: 1.665; Complete [1, 5]: 0.973; Cholesterol-free media + simvastatin (0.04 μM) [2, 6]: 1.97; Complete Media [2, 7]: 1.117; Difference [2, 8]: −0.85

Q: Cl.N=C(N)NCCC[C@H](N)C(=O)O [L-Arginine (hydrochloride)] was tested. Which Difference [1, 9] did it give?
A: −0.16

Q: What about the Cholesterol-free [1, 10] of the same compound?
A: 1.414

Q: And the Complete [1, 11]?
A: 1.256

Q: And the “Cholesterol-free media + simvastatin (0.04 μM)” value [2, 12]?
A: 0.9293

Q: And the “Complete Media” value [2, 13]?
A: 0.9241

Q: What about the Difference ([2]; complete media minus cholesterol-free media + simvastatin (0.04 μM), […]) of the same compound?
A: −0.01

Q: Which Cholesterol-free [1] does the source give for N=C(N)NCCC[C@H](N)C(=O)O [L-Arginine] here?
A: 0.984

Q: And the Complete [1]?
A: 1.115

Q: And the Difference [1]?
A: 0.13

Q: And the “Cholesterol-free media + simvastatin (0.04 μM)” value [2]?
A: 1.189

Q: What about the “Complete Media” value [2] of the same compound?
A: 1.484

Q: And the Difference [2]?
A: 0.29

Q: For O=C1O[C@H]([C@@H](O)CO)C(O)=C1O [L-Ascorbic acid (sodium salt)], which Difference [1, 14] is on record?
A: −0.14

Q: And the Cholesterol-free [1, 10]?
A: 0.9664

Q: And the Complete [1, 11]?
A: 0.8232

Q: What about the “Cholesterol-free media + simvastatin (0.04 μM)” value [2, 12] of the same compound?
A: 0.9802

Q: What about the “Complete Media” value [2, 13] of the same compound?
A: 0.9199

Q: What about the Difference [2, 15] of the same compound?
A: −0.06

Q: What does the source list for O=C1O[C@H]([C@@H](O)CO)C(O)=C1O [L-Ascorbic acid]?
A: Difference [1, 14]: −0.14; Cholesterol-free [1, 10]: 1.001; Complete [1, 11]: 0.8619; Cholesterol-free media + simvastatin (0.04 μM) [2, 16]: 1.16; Complete Media [2, 11]: 1.003; Difference [2, 8]: −0.16

Q: For NC(=O)C[C@H](N)C(=O)O [L-Asparagine], which Difference [1, 17] is on record?
A: −0.27

Q: And the Cholesterol-free [1, 18]?
A: 1.71

Q: What about the Complete ([1]; NCI-H292 cells, complete media) of the same compound?
A: 1.437

Q: What about the “Cholesterol-free media + simvastatin (0.04 μM)” value [2, 19] of the same compound?
A: 0.6588

Q: And the “Complete Media” value [2, 20]?
A: 0.704

Q: What about the Difference [2, 21] of the same compound?
A: 0.05

Q: Which Cholesterol-free [1, 18] does the source give for C[N+](C)(C)C[C@H](O)CC(=O)[O-].Cl [L-Carnitine (hydrochloride)] here?
A: 1.478

Q: And the Difference ([1]; complete vs cholesterol-free media, […])?
A: −0.31

Q: And the “Cholesterol-free media + simvastatin (0.04 μM)” value ([2]; NCI-H292 cells, cholesterol-free media with simvastatin 0.04 μM, […])?
A: 0.7755

Q: And the “Complete Media” value ([2]; NCI-H292 cells, complete media, […])?
A: 0.7998

Q: What about the Difference ([2]; complete media minus cholesterol-free media + simvastatin, […]) of the same compound?
A: 0.02

Q: What does the source list for C[N+](C)(C)C[C@H](O)CC(=O)[O-] [L-Carnitine]?
A: Difference [1, 14]: −0.11; Cholesterol-free [1, 10]: 1.053; Complete [1, 11]: 0.9402; Cholesterol-free media + simvastatin (0.04 μM) [2, 16]: 0.9127; Complete Media [2, 11]: 0.8221; Difference [2, 8]: −0.09

Q: What does the source list for N[C@H]1CONC1=O [L-Cycloserine]?
A: Difference [1, 3]: −0.78; Cholesterol-free [1, 4]: 1.458; Complete [1, 5]: 0.6746; Cholesterol-free media + simvastatin (0.04 μM) [2, 19]: 0.815; Complete Media [2, 20]: 0.9066; Difference [2, 21]: 0.09

Q: Which Difference [1, 9] does the source give for Cl.N[C@@H](CS)C(=O)O [L-Cysteine (hydrochloride)] here?
A: −0.04

Q: What about the Cholesterol-free [1, 22] of the same compound?
A: 1.166

Q: And the Complete [1, 23]?
A: 1.124

Q: And the “Cholesterol-free media + simvastatin (0.04 μM)” value ([2]; NCI-H292 cells, drug in cholesterol-free media with simvastatin 0.04 μM)?
A: 1.122

Q: And the “Complete Media” value ([2]; NCI-H292 cells, drug in complete media)?
A: 0.9187

Q: What about the Difference [2, 24] of the same compound?
A: −0.20

Q: N[C@@H](CS)C(=O)O [L-Cysteine] was tested. Which Difference [1, 17] did it give?
A: −0.21

Q: What about the Complete ([1]; NCI-H292 cells, complete media) of the same compound?
A: 0.7323

Q: What about the “Cholesterol-free media + simvastatin (0.04 μM)” value [2, 12] of the same compound?
A: 1.471

Q: And the “Complete Media” value [2, 13]?
A: 1.439

Q: What about the Difference [2, 15] of the same compound?
A: −0.03

Q: Which results are given for Cl.NCCC[C@](N)(C(=O)O)C(F)F [L-Eflornithine (monohydrochloride)]?
A: Difference [1, 17]: 0.02; Cholesterol-free [1, 22]: 0.8255; Complete [1, 23]: 0.8469; Cholesterol-free media + simvastatin (0.04 μM) [2, 12]: 1.266; Complete Media [2, 13]: 1.268; Difference [2, 15]: 0.00

Q: For CNC[C@H](O)c1ccc(O)c(O)c1.O=C(O)C(O)C(O)C(=O)O [L-Epinephrine (Bitartrate)], which Difference [1, 14] is on record?
A: −0.14

Q: And the Cholesterol-free [1, 10]?
A: 1.247

Q: What about the Complete [1, 11] of the same compound?
A: 1.112

Q: And the “Cholesterol-free media + simvastatin (0.04 μM)” value [2, 19]?
A: 1.096

Q: What about the “Complete Media” value [2, 20] of the same compound?
A: 1.136

Q: And the Difference [2, 21]?
A: 0.04

Q: What does the source list for N[C@@H](CCC(=O)O)C(=O)[O-].[Na+] [L-Glutamic acid monosodium salt]?
A: Difference [1, 9]: −0.03; Cholesterol-free [1, 22]: 1.093; Complete [1, 23]: 1.059; Cholesterol-free media + simvastatin (0.04 μM) [2, 6]: 1.191; Complete Media [2, 7]: 0.778; Difference [2, 24]: −0.41
